Literature values, collected in patent US6365176B1, “Nutritional supplement for patients with type 2 diabetes mellitus for lipodystrophy” (Functional Foods, Inc., priority 2000, dated 2002).

Tests used:
[1] = in vivo
[2] = doses between 200 and 1,000 μg daily

Row | Compound | glycemic index (GI) [1] | fasting plasma glucose concentrations [2]
1 | O=C(CO)[C@@H](O)[C@H](O)[C@H](O)CO [Fructose] | 32 | 
2 | chromium picolinate [Chromium as picolinate] |  | beneficial effect
